How the values were obtained:
Type in all cases: in vivo
[1] = tested on: ducksalad (Heteranthera limosa); assay: Test B flooded paddy test; conditions: Heteranthera limosa, Flood, 250 g ai/ha; scale of 0 to 100 where 0 is no effect and 100 is complete control; read-out: Ducksalad plant response rating
Summary of the method: (§1)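 Percent control, visually estimated after 13–15 d in the greenhouse on a 0–100 basis, compares treated pots with untreated ones; compound was put into paddy water 3 cm above the soil when plants had two leaves.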

[2] = tested on: sedge, umbrella (small-flower umbrella sedge, Cyperus difformis); assay: Test B flooded paddy test; conditions: Cyperus difformis, Flood, 250 g ai/ha; scale of 0 to 100 where 0 is no effect and 100 is complete control; read-out: Sedge, Umbrella plant response rating
Summary of the method: as §1

[3] = tested on: barnyardgrass (Echinochloa crus-galli); assay: Test B flooded paddy test; conditions: Echinochloa crus-galli, Flood, 250 g ai/ha; scale of 0 to 100 where 0 is no effect and 100 is complete control; read-out: Barnyardgrass plant response rating
Summary of the method: as §1

[4] = tested on: rice (Oryra sativa); assay: Test B flooded paddy test; conditions: Oryza sativa, Flood, 250 g ai/ha; scale of 0 to 100 where 0 is no effect and 100 is complete control; read-out: Rice plant response rating
Summary of the method: as §1

[5] = tested on: Kochia (Kochia scoparia); assay: Test A postemergence; conditions: Bassia scoparia, post-emergence, 240 h, 125 g ai/ha, Postemergence; visual injury after approximately 10 d; 0 to 100 scale where 0 is no effect and 100 is complete control; read-out: Plant response rating, Kochia
Summary of the method: (§2)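 Visual injury, scored on a 0–100 scale relative to untreated controls, was recorded about 10 d after application. Treatments were a preemergence soil spray over planted seeds or a postemergence spray on plants at the one- to two-leaf stage, 2 to 10 cm tall, all in loam soil–sand blend in the greenhouse.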

[6] = tested on: corn (Zea mays); assay: Test A postemergence; conditions: Zea mays, post-emergence, 240 h, 125 g ai/ha, Postemergence; visual injury after approximately 10 d; 0 to 100 scale where 0 is no effect and 100 is complete control
Summary of the method: as §2

[7] = tested on: pigweed (Amaranthus retroflexus); assay: Test A postemergence; conditions: Amaranthus retroflexus, post-emergence, 240 h, 125 g ai/ha, Postemergence; visual injury after approximately 10 d; 0 to 100 scale where 0 is no effect and 100 is complete control; read-out: Plant response rating, Pigweed
Summary of the method: as §2

[8] = tested on: Galium (catchweed bedstraw, Galium aparine); assay: Test A postemergence; conditions: Galium, post-emergence, 240 h, 125 g ai/ha, Postemergence; visual injury after approximately 10 d; 0 to 100 scale where 0 is no effect and 100 is complete control; read-out: Plant response rating, Galium
Summary of the method: as §2

[9] = tested on: wheat (Triticum aestivum); assay: Test A postemergence; conditions: Triticum aestivum, post-emergence, 240 h, 125 g ai/ha, Postemergence; visual injury after approximately 10 d; 0 to 100 scale where 0 is no effect and 100 is complete control; read-out: Plant response rating, Wheat
Summary of the method: as §2

[10] = tested on: blackgrass (Alopecurus myosuroides); assay: Test A postemergence; conditions: Alopecurus myosuroides, post-emergence, 240 h, 125 g ai/ha, Postemergence; visual injury after approximately 10 d; 0 to 100 scale where 0 is no effect and 100 is complete control; read-out: Plant response rating, Blackgrass
Summary of the method: as §2

[11] = tested on: ragweed (common ragweed, Ambrosia elatior); assay: Test A postemergence; conditions: Ambrosia artemisiifolia, post-emergence, 240 h, 125 g ai/ha, Postemergence; visual injury after approximately 10 d; 0 to 100 scale where 0 is no effect and 100 is complete control; read-out: Plant response rating, Ragweed
Summary of the method: as §2

[12] = tested on: barnyardgrass (Echinochloa crus-galli); assay: Test A postemergence; conditions: Echinochloa crus-galli, post-emergence, 240 h, 125 g ai/ha, Postemergence; visual injury after approximately 10 d; 0 to 100 scale where 0 is no effect and 100 is complete control; read-out: Plant response rating, Barnyardgrass
Summary of the method: as §2

[13] = tested on: ryegrass, Italian (Italian ryegrass, Lolium multiflorum); assay: Test A postemergence; conditions: Lolium multiflorum, post-emergence, 240 h, 125 g ai/ha, Postemergence; visual injury after approximately 10 d; 0 to 100 scale where 0 is no effect and 100 is complete control; read-out: Plant response rating, Ryegrass, Italian
Summary of the method: as §2

[14] = tested on: giant foxtail (Setaria faberii); assay: Test A postemergence; conditions: Setaria faberi, post-emergence, 240 h, 125 g ai/ha, Postemergence; visual injury after approximately 10 d; 0 to 100 scale where 0 is no effect and 100 is complete control; read-out: Plant response rating, Foxtail, Giant
Summary of the method: as §2

[15] = tested on: Kochia (Kochia scoparia); assay: Test A preemergence; conditions: Bassia scoparia, pre-emergence, 240 h
Summary of the method: as §2

[16] = tested on: pigweed (Amaranthus retroflexus); assay: Test A preemergence; conditions: Amaranthus retroflexus, pre-emergence, 240 h
[17] = tested on: ragweed (common ragweed, Ambrosia elatior); assay: Test A preemergence; conditions: Ambrosia artemisiifolia, pre-emergence, 240 h
Summary of the method: as §2

[18] = tested on: barnyardgrass (Echinochloa crus-galli); assay: Test A preemergence; conditions: Echinochloa crus-galli, pre-emergence, 240 h
Summary of the method: as §2

[19] = tested on: ryegrass, Italian (Italian ryegrass, Lolium multiflorum); assay: Test A preemergence; conditions: Lolium multiflorum, pre-emergence, 240 h
Summary of the method: as §2

[20] = tested on: giant foxtail (Setaria faberii); assay: Test A preemergence; conditions: Setaria faberi, pre-emergence, 240 h
Summary of the method: as §2

CCOc1cccc([C@H]2CN(C)C(=O)[C@@H]2C(=O)Nc2ccc(F)cc2F)c1 [Compound 963]
30%: pest or weed control at 125 g/ha [8] | pest or weed control at 500 g/ha ([16]; 500 g ai/ha, preemergence, visual injury rating about 10 d after treatment, 0 to 100 scale (0 no effect, 100 complete control), read-out: Pigweed plant response rating)
100%: pest or weed control at 500 g/ha ([18]; 500 g ai/ha, preemergence, visual injury rating about 10 d after treatment, 0 to 100 scale (0 no effect, 100 complete control), read-out: Barnyardgrass plant response rating) | pest or weed control at 125 g/ha ([20]; 125 g ai/ha, Preemergence, visual injury rating after approximately 10 d, read-out: Foxtail, Giant plant response rating (0 to 100 scale, 0 is no effect, 100 is complete control)) | pest or weed control at 500 g/ha ([20]; 500 g ai/ha, preemergence, visual injury rating about 10 d after treatment, 0 to 100 scale (0 no effect, 100 complete control), read-out: Foxtail, Giant plant response rating)
70%: pest or weed control at 500 g/ha ([15]; 500 g ai/ha, preemergence, visual injury rating about 10 d after treatment, 0 to 100 scale (0 no effect, 100 complete control), read-out: Kochia plant response rating)
0%: pest or weed control at 250 g/ha [2] | pest or weed control at 250 g/ha [4] | Corn plant response rating (crop injury, 0 = no effect, 100 = complete kill) at 125 g/ha [6] | pest or weed control at 125 g/ha [7] | plant injury at 125 g/ha [9] | pest or weed control at 125 g/ha [10] | pest or weed control at 125 g/ha [11] | pest or weed control at 125 g/ha ([16]; 125 g ai/ha, Preemergence, visual injury rating after approximately 10 d, read-out: Pigweed plant response rating (0 to 100 scale, 0 is no effect, 100 is complete control)) | pest or weed control at 125 g/ha ([17]; 125 g ai/ha, Preemergence, visual injury rating after approximately 10 d, read-out: Ragweed plant response rating (0 to 100 scale, 0 is no effect, 100 is complete control)) | pest or weed control at 500 g/ha ([17]; 500 g ai/ha, preemergence, visual injury rating about 10 d after treatment, 0 to 100 scale (0 no effect, 100 complete control), read-out: Ragweed plant response rating)
40%: pest or weed control at 125 g/ha ([15]; 125 g ai/ha, Preemergence, visual injury rating after approximately 10 d, read-out: Kochia plant response rating (0 to 100 scale, 0 is no effect, 100 is complete control)) | pest or weed control at 500 g/ha ([19]; 500 g ai/ha, preemergence, visual injury rating about 10 d after treatment, 0 to 100 scale (0 no effect, 100 complete control), read-out: Ryegrass, Italian plant response rating)
65%: pest or weed control at 250 g/ha [3]
20%: pest or weed control at 125 g/ha [5] | pest or weed control at 125 g/ha [13] | pest or weed control at 125 g/ha ([19]; 125 g ai/ha, Preemergence, visual injury rating after approximately 10 d, read-out: Ryegrass, Italian plant response rating (0 to 100 scale, 0 is no effect, 100 is complete control))
90%: pest or weed control at 250 g/ha [1] | pest or weed control at 125 g/ha [12] | pest or weed control at 125 g/ha [14] | pest or weed control at 125 g/ha ([18]; 125 g ai/ha, Preemergence, visual injury rating after approximately 10 d, read-out: Barnyardgrass plant response rating (0 to 100 scale, 0 is no effect, 100 is complete control))
